Values quoted from earlier work, collected in patent publication US20250222024A1, “METHOD AND COMPOSITION FOR TREATING CORONA VIRUS, INFLUENZA, AND ACUTE RESPIRATORY DISTRESS SYNDROME” (ReversPAH LLC, priority 2020, published 2025).

Key:
[1] = tested on: silica-induced lung inflammation and fibrosis; conditions: by inhibiting T-helper 17 cell (TH 17)
[2] = tested on: monocrotaline-induced pulmonary hypertension; conditions: through the bone morphogenetic protein signaling pathway
[3] = tested on: carrageenan-induced lung injury; conditions: for TNF-alpha levels in the lung / nitrite and nitrate levels (stable NO metabolites) in pleural exudates: 4 hours after carrageenan administration, versus CAR group, n=8 mice; for TNF-alpha levels in the lung: FIG. 10(a); for nitrite and nitrate levels (stable NO metabolites) in pleural exudates: FIG. 10(b)
[4] = tested on: Sugen/hypoxia-induced PAH; conditions: rat
SARS-CoV-2 = conditions: in vitro

Q: Which “silica-induced lung inflammation and fibrosis” value [1] does the source give for `O=C(O)[C@H]1O[C@@H](Oc2cc3oc(-c4ccccc4)cc(=O)c3c(O)c2O)[C@H](O)[C@@H](O)[C@@H]1O` [Baicalin] here?
A: alleviate silica-induced lung inflammation and fibrosis

Q: What about the monocrotaline-induced pulmonary hypertension [2] of the same compound?
A: attenuate monocrotaline-induced pulmonary hypertension

Q: Which “TNF-alpha levels in the lung” value [3] does the source give for `CCN(CC)C(=O)N1CCN(C)CC1` [DEC, Diethylcarbamazine] here?
A: significantly reduced the TNF-alpha levels

Q: And the “nitrite and nitrate levels (stable NO metabolites) in pleural exudates” value [3]?
A: significantly reduced the nitrite and nitrate level

Q: What about the “neutrophil infiltration into the lung (myeloperoxidase marker)” value ([3]; mouse acute lung injury model, DEC pretreatment, FIG. 9) of the same compound?
A: significantly inhibited neutrophil infiltration

Q: With `COc1ccc2c(c1)c(CC(=O)O)c(C)n2C(=O)c1ccc(Cl)cc1` [INDO] as the compound, how does the “TNF-alpha levels in the lung” value [3] read?
A: did not reduce the TNF-alpha level

Q: And the “nitrite and nitrate levels (stable NO metabolites) in pleural exudates” value [3]?
A: significantly reduced the nitrite and nitrate level

Q: For `S=C(S)N1CCCC1` [pyrrolidine dithiocarbamate], which “reversal of established angio-obliterative PAH” value [4] is on record?
A: reverse established angio-obliterative PAH

Q: With Ivermectin as the compound, how does the “replication of SARS-CoV-2” value (SARS-CoV-2) read?
A: inhibits the replication of SARS-CoV-2 in vitro
